Laboratory results published in patent publication US12465050B2, “Compositions comprising a pyridine carboxylate herbicide and protoporphyrinogen oxidase (protox) inhibitor herbicides” (priority 2018, dated 2025).

Tests used:
Type in all cases: in vivo
[1] = system: Setaria faberi (giant foxtail); assay: Greenhouse postemergence herbicidal effect on SETFA
From the text: (§1) Greenhouse Trial Methodology—Evaluation of Postemergence Herbicidal Effect
(§2) Seeds of the desired test plant species were planted in a 90:10% v/v (volume/volume) mixture of PRO-MIX® BX (Premier Tech Horticulture, Quakertown, Pa., USA) and PROFILE® GREENS GRADE™ (Profile Products LLC, Buffalo Grove, Ill., USA) planting mixture, which typically has a pH of 5.2 to 6.2 and an organic matter content of at least 50 percent, in plastic pots with a surface area of 103.2 square centimeters (cm^2). In some aspects or embodiments, to help ensure good germination and healthy plants, a fungicide treatment and/or other chemical or physical treatment was applied. The plants were grown for 7-36 days (d) in a greenhouse with an approximate 14-hour (h) photoperiod which was maintained at about 23° C. during the day and 22° C. during the night. Nutrients and water were added on a regular basis and supplemental lighting was provided with overhead metal halide 1000-Watt lamps as necessary. The plants were employed for testing when they reached the second or third true leaf stage.
(§3) Emulsifiable concentrates of each of each pyridine carboxylate herbicide (Compound A or Compound B) were prepared at 100 grams acid equivalent per liter (g ae/L). The emulsifiable concentrates also included a safener, cloquintocet mexyl, at 120 grams active ingredient per liter (g ai/L). An aliquot of each emulsifiable concentrate was placed in a 25 mL glass vial and diluted with an aqueous mixture of 1.25% (v/v) ACTIROB® B esterified rapeseed oil (Bayer Crop Science, Research Triangle Park, N.C., USA) or MSO® Concentrate with LECI-TECH® methylated soybean oil (Loveland Products, Loveland, Colo., USA) to obtain concentrated stock solutions at the highest application rate for each herbicide, based upon a 12 milliliter (mL) application volume at a rate of 187 liters per hectare (L/ha). The concentrated stock solutions were further diluted with an aqueous mixture of 1.25% v/v ACTIROB® B or MSO® Concentrate with LECI-TECH® to obtain stock solutions at reduced application rates for each herbicide. Spray solutions of the herbicide combinations (Compound A or Compound B plus PROTOX inhibitor herbicide) were prepared by adding weighed amounts or aliquots of the PROTOX inhibitor herbicides to the stock solutions of Compound A or Compound B to form 12-mL spray solutions in two-way combinations.
(§4) The spray solutions were applied to the plant material with an overhead Mandel track sprayer equipped with 8002E nozzles calibrated to deliver 187 L/ha over an application area of 0.503 square meters (m^2) at a spray height of 18 inches (43 centimeters (cm)) above the average plant canopy. Control plants were sprayed in the same manner with the solvent blank. All pyridine carboxylate herbicide (component a) application rates are given as “g ae/ha” and all PROTOX inhibitor herbicide (component b) application rates are given as “g ai/ha.”
(§5) The treated plants and control plants were placed in a greenhouse as described above and watered by sub-irrigation to prevent wash-off of the test compounds. After 20-22 d, the condition of the test plants as compared with that of the control plants was determined visually and scored on a scale of 0 to 100 percent where 0 corresponds to no injury and 100 corresponds to complete kill.

[2] = system: Cirsium arvense (Canadian thistle); assay: Greenhouse postemergence herbicidal effect on CIRAR
From the text: as §1, §2, §3, §4, §5

[3] = system: Sorghum vulgare (sorghum); assay: Greenhouse postemergence herbicidal effect on SORVU; settings: Compound A 0, Saflufenacil 11.2 g/ha
From the text: as §1, §2
(§6) Emulsifiable concentrates of each of each pyridine carboxylate herbicide (Compound A or Compound B) were prepared at 100 grams acid equivalent per liter (g ae/L). The emulsifiable concentrates also included a safener, cloquintocet mexyl, at 120 grams active ingredient per liter (g ai/L). […]
as §5

[4] = system: Rumex obtusifolius (broad-leaf dock); assay: Greenhouse postemergence herbicidal effect on RUMOB; settings: Compound A 0, Saflufenacil 11.2 g/ha
From the text: as §1, §2, §3, §4, §5

[5] = system: Triticum aestivum (spring wheat); assay: Greenhouse postemergence phytotoxicity on crop TRZAS
From the text: as §1, §2, §3, §4, §5

Zea mays (maize) = assay: Greenhouse postemergence phytotoxicity on crop ZEAMX; settings: Compound A 0, Saflufenacil 11.2 g/ha
From the text: as §1, §2, §6, §5

[6] = system: Brassica napus (spring rape); assay: Greenhouse postemergence herbicidal effect on BRSNN
From the text: as §1, §2, §3, §4, §5

[7] = system: Viola tricolor (wild pansy); assay: Greenhouse postemergence herbicidal effect on VIOTR; settings: Compound B 0, Saflufenacil 1 g/ha
From the text: as §1, §2, §3, §4, §5

[8] = system: Abutilon theophrasti (velvetleaf); assay: Greenhouse postemergence herbicidal effect on ABUTH; settings: Compound A 0, Saflufenacil 11.2 g/ha
From the text: as §1, §2, §6, §5

[9] = system: Cyperus esculentus (nutsedge); assay: Greenhouse postemergence herbicidal effect on CYPES; settings: Compound A 0, Saflufenacil 11.2 g/ha
From the text: as §1, §2, §6, §5

[10] = system: Amaranthus retroflexus (pigweed); assay: Greenhouse postemergence herbicidal effect on AMARE
From the text: as §1, §2, §3, §4, §5

[11] = system: Chenopodium album L. (common lambsquarters); assay: Greenhouse postemergence herbicidal effect on CHEAL
From the text: as §1, §2, §3, §4, §5

Kochia scoparia (kochia) = assay: Greenhouse postemergence herbicidal effect on KCHSC
From the text: as §1, §2, §3, §4, §5

[12] = system: Sinapis arvensis (wild mustard); assay: Greenhouse postemergence herbicidal effect on SINAR
From the text: as §1, §2, §3, §4, §5

[13] = system: Hordeum vulgare (spring barley); assay: Greenhouse postemergence phytotoxicity on crop HORVS
From the text: as §1, §2, §3, §4, §5

[14] = system: Salsola kali (Russian thistle); assay: Greenhouse postemergence herbicidal effect on SASKR
From the text: as §1, §2, §3, §4, §5

[15] = system: Polygonum convolvulus (wild buckwheat); assay: Greenhouse postemergence herbicidal effect on POLCO
From the text: as §1, §2, §3, §4, §5

[16] = system: Brassica napus (winter rape); assay: Greenhouse postemergence herbicidal effect on BRSNW; settings: Compound A 0, Pyraflufen-ethyl 6 g/ha
From the text: as §1, §2, §3, §4, §5

[17] = system: Matricaria chamomilla (wild chamomile); assay: Greenhouse postemergence herbicidal effect on MATCH; settings: Compound A 0, Pyraflufen-ethyl 6 g/ha
From the text: as §1, §2, §3, §4, §5

[18] = Compound A 0, Saflufenacil 11.2 g/ha
[19] = Compound B 0, Saflufenacil 1 g/ha
[20] = Compound A 0, Pyraclonil 42.5 g/ha
[21] = Compound A 0, Pyraflufen-ethyl 6 g/ha

`CC(C)N(C)S(=O)(=O)NC(=O)c1cc(-n2c(=O)cc(C(F)(F)F)n(C)c2=O)c(F)cc1Cl` [Saflufenacil, 2-chloro-5-[3,6-dihydro-3-methyl-2,6-dioxo-4-(trifluoromethyl)-1(2H)-pyrimidinyl]-4-fluoro-N-[[methyl(1-methylethyl)-amino]sulfonyl]benzamide, reference compound] was tested, and the “% visual injury, Obs” value [1, 18] was 53%, the “% visual injury, Obs” value [1, 19] was 13% and the “% visual injury, Obs” value [2, 19] was 80%. The “% visual injury, Obs” value [3] was 33%, the “% visual injury, Obs” value [4] was 100% and the “% visual injury, Obs” value [5, 18] was 10%. The “% visual injury, Obs” value (Zea mays (maize)) was 45%, the “% visual injury, Obs” value [6, 18] was 90% and the “% visual injury, Obs” value [7] was 55%. The “% visual injury, Obs” value [8] was 98%, the “% visual injury, Obs” value [9] was 28% and the “% visual injury, Obs” value [10, 18] was 100%.

With `C#CCN(C)c1c(C#N)cnn1-c1nn2c(c1Cl)CCCC2` [Pyraclonil, 1-(3-chloro-4,5,6,7-tetrahydropyrazolo[1,5-a]pyridin-2-yl)-5-[methyl-2-propynylamino]-1H-pyrazole-4-carbonitrile, reference compound] the “% visual injury, Obs” value [11, 20] was 15%, the “% visual injury, Obs” value (Kochia scoparia (kochia); [20]) was 15% and the “% visual injury, Obs” value [12, 20] was 15%. For the same compound, the “% visual injury, Obs” value [13, 20] was 28%, the “% visual injury, Obs” value [14, 20] was 78% and the “% visual injury, Obs” value [5, 20] was 3%. The “% visual injury, Obs” value [6, 20] was 23% and the “% visual injury, Obs” value [15, 20] was 20%.

`CCOC(=O)COc1cc(-c2nn(C)c(OC(F)F)c2Cl)c(F)cc1Cl` [Pyraflufen-ethyl, ethyl 2-chloro-5-[4-chloro-5-(difluoromethoxy)-1-methyl-1H-pyrazol-3-yl]-4-fluorophenoxyacetate, reference compound] was tested, and the “% visual injury, Obs” value [2, 21] was 10%, the “% visual injury, Obs” value [16] was 0% and the “% visual injury, Obs” value [11, 21] was 5%. The “% visual injury, Obs” value (Kochia scoparia (kochia); [21]) was 0%, the “% visual injury, Obs” value [12, 21] was 0% and the “% visual injury, Obs” value [13, 21] was 0%. For the same compound, the “% visual injury, Obs” value [14, 21] was 5%, the “% visual injury, Obs” value [5, 21] was 0% and the “% visual injury, Obs” value [15, 21] was 0%. The “% visual injury, Obs” value [17] was 0% and the “% visual injury, Obs” value [10, 21] was 18%.
